Data from PubChem BioAssay (NCI).
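Assay format: 96-well plates, 48-hour exposure. GI50 is the concentration that inhibits growth by half. TGI: total growth inhibition.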

Key:
Experiment in all cases: growth of human tumour cells (NCI), 48 h
[1] = test system: SN12C renal
[2] = test system: HCT-15 colon
[3] = test system: MCF7 breast
[4] = test system: SF-539 CNS
[5] = test system: NCI-H522 lung
[6] = test system: SK-OV-3 ovarian
[7] = test system: 786-0 renal
[8] = test system: CAKI-1 renal
[9] = test system: MDA-MB-231 breast
[10] = test system: COLO 205 colon
[11] = test system: UACC-62 melanoma
[12] = test system: SF-295 CNS
[13] = test system: HS 578T breast
[14] = test system: MALME-3M melanoma
[15] = test system: HOP-62 NSCLC
[16] = test system: T-47D breast
[17] = test system: PC-3 prostate
[18] = test system: LOX IMVI melanoma
[19] = test system: OVCAR-4 ovarian
[20] = test system: TK-10 renal
[21] = test system: HOP-92 NSCLC
[22] = test system: OVCAR-8 ovarian
[23] = test system: HCC-2998 colon
[24] = test system: NCI-H460 lung
[25] = test system: OVCAR-5 ovarian
[26] = test system: RXF 393 renal
[27] = test system: NCI-H23 lung
[28] = test system: U251 CNS
[29] = test system: DU-145 prostate
[30] = test system: RPMI-8226 leukemia
[31] = test system: A498 renal
[32] = test system: M14 melanoma
[33] = test system: SF-268 CNS
[34] = test system: HCT-116 colon
[35] = test system: SNB-19 CNS
[36] = test system: SNB-75 CNS
[37] = test system: HT29 colon
[38] = test system: A549 NSCLC
[39] = test system: BT-549 breast
[40] = test system: ACHN renal
[41] = test system: NCI-H226 lung
[42] = test system: KM12 colon
[43] = test system: MDA-MB-468 breast
[44] = test system: IGROV1 ovarian
[45] = test system: SK-MEL-2 melanoma

COc1cc(/C=C/C(=O)c2nnn(-c3ccc(Cl)cc3)c2C)cc(OC)c1OC
GI50 [1]: 4.15 µM | TGI [1]: > 100 µM | GI50 [2]: 3.23 µM | TGI [2]: > 100 µM | GI50 [3]: 3.23 µM | TGI [3]: > 100 µM | GI50 [4]: > 100 µM | TGI [4]: > 100 µM | GI50 [5]: 4.06 µM | TGI [5]: > 100 µM | GI50 [6]: > 100 µM | TGI [6]: > 100 µM | GI50 [7]: 8.67 µM | TGI [7]: 62 µM | GI50 [8]: 4.46 µM | TGI [8]: > 100 µM | GI50 [9]: 3.48 µM | TGI [9]: > 100 µM | GI50 [10]: > 100 µM | TGI [10]: > 100 µM | GI50 [11]: 5.59 µM | TGI [11]: > 100 µM | GI50 [12]: 41.4 µM | TGI [12]: > 100 µM | GI50 [13]: 5.47 µM | TGI [13]: > 100 µM | GI50 [14]: 7.35 µM | TGI [14]: > 100 µM | GI50 [15]: 11 µM | TGI [15]: > 100 µM | GI50 [16]: > 100 µM | TGI [16]: > 100 µM | GI50 [17]: 3.53 µM | TGI [17]: > 100 µM | GI50 [18]: 3.06 µM | TGI [18]: > 100 µM | GI50 [19]: 4.25 µM | TGI [19]: > 100 µM | GI50 [20]: > 100 µM | TGI [20]: > 100 µM | GI50 [21]: 2.55 µM | TGI [21]: 23.6 µM | GI50 [22]: 4.15 µM | TGI [22]: > 100 µM | GI50 [23]: > 100 µM | TGI [23]: > 100 µM | GI50 [24]: 3.59 µM | TGI [24]: > 100 µM | GI50 [25]: > 100 µM | TGI [25]: > 100 µM | GI50 [26]: 6.39 µM | TGI [26]: > 100 µM | GI50 [27]: 6.2 µM | TGI [27]: > 100 µM | GI50 [28]: 4.1 µM | TGI [28]: > 100 µM | GI50 [29]: 3.62 µM | TGI [29]: > 100 µM | GI50 [30]: 2.22 µM | TGI [30]: > 100 µM | GI50 [31]: > 100 µM | TGI [31]: > 100 µM | GI50 [32]: 3.59 µM | TGI [32]: > 100 µM | GI50 [33]: 20.9 µM | TGI [33]: > 100 µM | GI50 [34]: 3.55 µM | TGI [34]: > 100 µM | GI50 [35]: 14.7 µM | TGI [35]: > 100 µM | GI50 [36]: 2.83 µM | TGI [36]: > 100 µM | GI50 [37]: 4.1 µM | TGI [37]: > 100 µM | GI50 [38]: 6.11 µM | TGI [38]: > 100 µM | GI50 [39]: 4.23 µM | TGI [39]: 84.3 µM | GI50 [40]: 5.82 µM | TGI [40]: > 100 µM | GI50 [41]: 7.53 µM | TGI [41]: > 100 µM | GI50 [42]: 8.53 µM | TGI [42]: > 100 µM | GI50 [43]: 3.38 µM | TGI [43]: > 100 µM | GI50 [44]: > 100 µM | TGI [44]: > 100 µM | GI50 [45]: > 100 µM | TGI [45]: > 100 µM
